Columns and labels:
[1] = test system: C22 animals (murine CMT model); assay: Bar crossing (posture) test and grip test, third study; format: in vivo, mice
Procedure: FIG. 2: A second series of preclinical tests with the same design as the first series (described in FIG. 1) was carried out. Animals were tested after one month and two months of treatment using the bar crossing test (the longer the animal takes to cross the bar or the more it slips off, the worse the locomotor performance). Animals were also tested in the grip test which measures the traction strength that must be applied for the animal to release the bar (the higher this value the better the performance). To confirm these findings and further investigate the mechanism of phenotypic correction, a third study was carried out. Two tests were used: a posture test (crossing a bar that gets progressively narrower) and a test of muscle strength, the “grip test”. FIG. 2 illustrates the results after two months of treatment. […] This test is a good indicator of muscle strength.

[2] = test system: C22 males (murine CMT model); assay: Rotor-Rod test, double-blind study vitamin C versus placebo in C22 males; format: in vivo, mice; details: 1.12 mg once a week by gavage
Procedure: Rotor-Rod test performance was evaluated every month (at 3 months, 4 months and 5 months). The standard deviation is indicated by the darkened section at the top of each column. […] Only males (from two litters) were used, since the degree of severity is sex-specific. […] The fact that only males were included is very important, because it is known that severity varies widely in human patients according to sex, a variability also seen in the animal models used, in which there appears to be a major modifier gene having an impact on myelination. “Genetic background” thus seems to play a significant role in the severity of the phenotype. It was therefore justified to work with individuals from a same litter. […] The animals were then evaluated in the Rotor-Rod test. The study lasted for three months (age of animals: two to five months). The results are illustrated in FIG. 1.

[3] = test system: C22 mice; assay: Histologic analysis of sciatic nerve, percentage of myelinated fibers; format: in vivo; details: C22 mice treated for three months
Procedure: The sciatic nerve was harvested and the percentage of myelinated fibers was determined by histologic analysis and is given in the figure on the ordinate, together with the results of a non-transgenic control (more than 95% of peripheral nerve fibers are myelinated in adults).
To obtain data on the mechanism of this phenotypic correction, the histologic features of the nerves of treated animals were studied. For this, some of the treated animals were sacrificed and a histologic analysis was performed. The percentage of myelinated nerve fibers increased with treatment (FIG. 3). This percentage was 95% for non-transgenic animals, 20-30% for untreated C22 mice and 70% for treated animals. The treatment therefore reactivated myelination, which was inhibited by overexpression of PMP22.

[4] = test system: C22 males (murine CMT model); assay: Survival of treated C22 males under continued treatment; format: in vivo, mice; details: continued vitamin C treatment; untreated males die before 10 months of age
Source text: The results, expressed in seconds, confirm that males were more severely affected (males in this line even have early mortality, since all males die before 10 months of age).
Performance continued to improve, even after taking into account that the animals had aged.

[5] = test system: transgenic C22 animals (murine CMT model, human YAC containing the PMP22 gene); assay: Rotor-Rod test, first open trial in transgenic C22 animals; format: in vivo, mice; details: treated with vitamin C
Procedure: To better understand the pathophysiology of this disease and to propose therapeutic solutions, a murine disease model was constructed in 1996 by transgenesis of a human YAC containing the PMP22 gene (Huxley et al., Human Molecular Genetics, 1996, Vol. 5, No. 5, 563-569). […] The action of vitamin C was tested in this model. A first “open” trial was carried out, without inclusion criteria, by simply separating males and females so as to rapidly determine whether a phenotypic correction effect could be seen. The Rotor-Rod test, classically used in pharmacology, was chosen as the criterion of muscle strength. […] The results, expressed in seconds, confirm that males were more severely affected (males in this line even have early mortality, since all males die before 10 months of age).

For `O=C1O[C@H]([C@@H](O)CO)C(O)=C1O` [vitamin C, ascorbic acid], which Bar crossing performance ([1]; after one and two months of treatment) is on record?
The Bar crossing performance was “deteriorated at the first month, then improved during the second”.

What about the “Grip test (muscle strength)” value ([1]; after two months of treatment) of the same compound?
The value was “improvement was also seen starting from two months of treatment”.

What about the “Rotor-Rod test performance, first month of treatment” value ([2]; first month) of the same compound?
The value was “not very effective”.

And the “Time on the bar (Rotor-Rod test), second month of treatment” value ([2]; from the second month)?
Its value is about 50 s.

And the “Rotor-Rod test performance, third month of treatment” value ([2]; third month)?
The value was “further improved”.

What about the “Percentage of myelinated nerve fibers” value [3] of the same compound?
The value was 70%.

And the “Age at which treated males were still alive” value [4]?
Its value is “still alive at age 24 months”.

What about the “Seconds on the bar (Rotor-Rod test), treated animals” value ([5]; C22 females) of the same compound?
Its value is 45.7 ± 10 s.

What about the “Seconds on the bar (Rotor-Rod test), treated animals” value ([5]; C22 males) of the same compound?
The value was 46 ± 14 s.

From patent US7649017B2, “Compositions intended for the treatment of peripheral neuropathies, preparation thereof and uses of same” (Universite de la Mediterranee, priority 2002, dated 2010)
